In patent US11807693B2 (priority 2014, dated 2023):
Starred links: 1 amine or outer side, 2 acyl side, 3 side chain; linkers in the order of their positions; H or OH if unused. Non-standard residues stand in square brackets, D forms with d. Residues, ends and D or L forms follow the SMILES beside them. *: point of attachment. dBip = N[C@H](Cc1ccc(-c2ccccc2)cc1)C(=O)O; Phe(4-Cl) = N[C@@H](Cc1ccc(Cl)cc1)C(=O)O; γGlu = O=C(O)[C@H](CCC(=O)[*:2])N[*:1]; 2Nal = N[C@@H](Cc1ccc2ccccc2c1)C(=O)O; NMeR = CN[C@@H](CCCNC(=N)N)C(=O)O; Tridecanoyl = CCCCCCCCCCCCC(=O)*; hArg = N=C(N)NCCCC[C@H](N)C(=O)O; Cha = N[C@@H](CC1CCCCC1)C(=O)O; αMeL = CC(C)C[C@](C)(N)C(=O)O; β3hV = CC(C)[C@H](N)CC(=O)O; Nle = CCCC[C@H](N)C(=O)O; AEEA = NCCOCCOCC(=O)O; βAla = NCCC(=O)O

Experiments:
[1] = In vitro stability in rat liver homogenate; type: in vitro ADME; settings: tissue homogenate
Description: (§1) Apelin peptides were spiked into rat plasma, liver homogenate, and kidney homogenate, which were obtained from commercial sources, to a final concentration of 5 μM. The samples were then incubated at 37° C. over a period of 4 hr. […] In a typical experiment, an aliquot of 100 μL of sample was taken from the incubation vial, followed by addition of 300 μL of MeOH containing internal standard. The quenched sample was centrifuged at 5500 g for 15 min after 15 min vortex in room temperature. The supernatant was then analyzed by high resolution LC-MS. […] In vitro plasma, […], and kidney stability results are shown below in Table 14.

[2] = In vitro stability in rat plasma; type: in vitro ADME
Description: as §1

SMILES	remaining at 4 h, 5 μM [1] [%]	remaining at 4 h, 5 μM [2] [%]
CSCC[C@H](NC(=O)[C@@H](N)CS)C(=O)N1CCC[C@H]1C(=O)N[C@@H](CC(C)C)C(=O)N[C@@H](Cc1cnc[nH]1)C(=O)N[C@@H](CO)C(=O)N[C@@H](CCCNC(=N)N)C(=O)N[C@H](C(=O)N1CCC[C@H]1C(=O)N[C@@H](Cc1ccccc1)C(=O)N1CCC[C@H]1C(=O)O)C(C)C [compound 13]	< 1	7
CCCC[C@H](NC(=O)[C@@H]1CCCN1C(=O)CNC(=O)[C@H](CCCCN)NC(=O)[C@H](Cc1c[nH]cn1)NC(=O)[C@H](CO)NC(=O)[C@H](CC(C)C)NC(=O)[C@H](CCCNC(=N)N)NC(=O)[C@@H]1CCCN1C(=O)[C@H](CCCNC(=N)N)NC(=O)[C@H](CCC(N)=O)NC(=O)[C@H](CCCNC(=N)N)NC(C)=O)C(=O)N1CCC[C@H]1C(=O)N[C@H](Cc1ccc(-c2ccccc2)cc1)C(=O)O [compound 62] (Ac-RQRPRLSHKGP[Nle]P[dBip]-OH)	< 1	6.3
CCCC[C@H](NC(=O)[C@@H]1CCCN1C(=O)CNC(=O)[C@H](CCCCN)NC(=O)[C@H](Cc1c[nH]cn1)NC(=O)[C@H](CO)NC(=O)[C@H](CC1CCCCC1)NC(=O)[C@H](CCCNC(=N)N)N(C)C(=O)[C@@H]1CCCN1C(=O)[C@H](CCCNC(=N)N)NC(=O)[C@H](CCC(N)=O)NC(=O)[C@H](CCCNC(=N)N)NC(C)=O)C(=O)N1CCC[C@H]1C(=O)N[C@@H](Cc1ccc(Cl)cc1)C(=O)O [compound 66] (Ac-RQRP[NMeR][Cha]SHKGP[Nle]P[Phe(4-Cl)]-OH)	–	2.4
CCCCCCCCCCCCC(=O)N[C@@H](CCC(=O)NCCOCCOCC(=O)NCCOCCOCC(=O)N[C@@H](CCC(N)=O)C(=O)N[C@@H](CCCCNC(=N)N)C(=O)N1CCC[C@H]1C(=O)N(C)[C@@H](CCCNC(=N)N)C(=O)N[C@@H](CC(C)C)C(=O)N[C@@H](CO)C(=O)N[C@@H](Cc1c[nH]cn1)C(=O)N[C@@H](CCCCN)C(=O)NCC(=O)N1CCC[C@H]1C(=O)N[C@@H](CCCC)C(=O)N1CCC[C@H]1C(=O)N[C@@H](Cc1ccc(Cl)cc1)C(=O)O)C(=O)O [compound 353]	0	20
CCCCCCCCCCCCC(=O)N[C@@H](CCC(=O)NCCOCCOCC(=O)NCCOCCOCC(=O)N[C@@H](CCC(N)=O)C(=O)N[C@@H](CCCNC(=N)N)C(=O)N1CCC[C@H]1C(=O)N[C@@H](CCCCNC(=N)N)C(=O)N[C@@H](CC(C)C)C(=O)N[C@@H](CO)C(=O)N[C@@H](Cc1c[nH]cn1)C(=O)N[C@@H](CCCCN)C(=O)NCC(=O)N1CCC[C@H]1C(=O)N[C@@H](CCCC)C(=O)N1CCC[C@H]1C(=O)N[C@@H](Cc1ccc(Cl)cc1)C(=O)O)C(=O)O [compound 355]	0	64
CCCCCCCCCCCCC(=O)N[C@@H](CCC(=O)NCCOCCOCC(=O)NCCOCCOCC(=O)N[C@@H](CCC(N)=O)C(=O)N[C@@H](CCCCNC(=N)N)C(=O)N1CCC[C@H]1C(=O)N[C@@H](CCCCNC(=N)N)C(=O)N[C@@H](CC(C)C)C(=O)N[C@@H](CO)C(=O)N[C@@H](Cc1c[nH]cn1)C(=O)N[C@@H](CCCCN)C(=O)NCC(=O)N1CCC[C@H]1C(=O)N[C@@H](CCCC)C(=O)N1CCC[C@H]1C(=O)N[C@@H](Cc1ccc(Cl)cc1)C(=O)O)C(=O)O [compound 357]	0	56
CCCCCCCCCCCCC(=O)N[C@@H](CCC(=O)NCCOCCOCC(=O)NCCOCCOCC(=O)N[C@@H](CCC(N)=O)C(=O)N[C@@H](CCCCNC(=N)N)C(=O)N1CCC[C@H]1C(=O)N(C)[C@@H](CCCNC(=N)N)C(=O)N[C@H](CC(=O)N[C@@H](CO)C(=O)N[C@@H](Cc1c[nH]cn1)C(=O)N[C@@H](CCCCN)C(=O)NCC(=O)N1CCC[C@H]1C(=O)N[C@@H](CCCC)C(=O)N1CCC[C@H]1C(=O)N[C@@H](Cc1ccc(Cl)cc1)C(=O)O)C(C)C)C(=O)O [compound 383] ({Tridecanoyl-γGlu-AEEA-AEEA}-Q[hArg]P[NMeR][β3hV]SHKGP[Nle]P[Phe(4-Cl)]-OH)	< 1	31
CCCCCCCCCCCCC(=O)N[C@@H](CCC(=O)NCCOCCOCC(=O)NCCOCCOCC(=O)N[C@@H](CCC(N)=O)C(=O)N[C@H](CCCNC(=N)N)C(=O)N1CCC[C@H]1C(=O)N(C)[C@@H](CCCCNC(=N)N)C(=O)NC(CC(=O)N[C@@H](CO)C(=O)N[C@@H](Cc1c[nH]cn1)C(=O)N[C@@H](CCCCN)C(=O)NCC(=O)N1CCC[C@H]1C(=O)N[C@@H](CCCC)C(=O)N1CCC[C@H]1C(=O)N[C@@H](Cc1ccc(Cl)cc1)C(=O)O)C(C)C)C(=O)O (stereo partly shown) [compound 384]	< 1	25
CCCCCCCCCCCCC(=O)N[C@@H](CCC(=O)NCCOCCOCC(=O)NCCOCCOCC(=O)N[C@@H](CCC(N)=O)C(=O)N[C@@H](CCCNC(=N)N)C(=O)N1CCC[C@H]1C(=O)N(C)[C@@H](CCCNC(=N)N)C(=O)N[C@@H](CC(C)C)C(=O)N[C@@H](CO)C(=O)N[C@@H](Cc1c[nH]cn1)C(=O)N[C@@H](CCCCN)C(=O)NCC(=O)N1CCC[C@H]1C(=O)N[C@@H](CCCC)C(=O)N[C@@H](Cc1ccc(Cl)cc1)C(=O)O)C(=O)O [compound 402] ({Tridecanoyl-γGlu-AEEA-AEEA}-QRP[NMeR]LSHKGP[Nle][Phe(4-Cl)]-OH)	< 1	87
CCCCCCCCCCCCC(=O)N[C@@H](CCC(=O)NCCOCCOCC(=O)NCCOCCOCC(=O)N[C@@H](CCC(N)=O)C(=O)N[C@@H](CCCNC(=N)N)C(=O)N1CCC[C@H]1C(=O)N(C)[C@@H](CCCNC(=N)N)C(=O)N[C@H](CC(=O)N[C@@H](CO)C(=O)N[C@@H](Cc1c[nH]cn1)C(=O)N[C@@H](CCCCN)C(=O)NCC(=O)N1CCC[C@H]1C(=O)N[C@@H](CCCC)C(=O)N1CCC[C@H]1C(=O)N[C@@H](Cc1ccc(Cl)cc1)C(=O)O)CC(C)C)C(=O)O [compound 422]	< 1	37
CCCCCCCCCCCCC(=O)N[C@@H](CCC(=O)NCCOCCOCC(=O)NCCOCCOCC(=O)N[C@@H](CCC(N)=O)C(=O)N[C@@H](CCCNC(=N)N)C(=O)N1CCC[C@H]1C(=O)N(C)[C@@H](CCCNC(=N)N)C(=O)N[C@@H](CC(C)C)C(=O)N[C@@H](CO)C(=O)N[C@@H](Cc1c[nH]cn1)C(=O)N[C@@H](CCCCN)C(=O)NCC(=O)N1CCC[C@H]1C(=O)N[C@@H](CCCC)C(=O)NCCC(=O)N[C@@H](Cc1ccc(Cl)cc1)C(=O)O)C(=O)O [compound 425] ({Tridecanoyl-γGlu-AEEA-AEEA}-QRP[NMeR]LSHKGP[Nle][βAla][Phe(4-Cl)]-OH)	< 1	> 90
CCCCCCCCCCCCC(=O)N[C@@H](CCC(=O)NCCOCCOCC(=O)NCCOCCOCC(=O)N[C@@H](CCC(N)=O)C(=O)N[C@@H](CCCNC(=N)N)C(=O)N1CCC[C@H]1C(=O)N(C)[C@@H](CCCNC(=N)N)C(=O)N[C@@H](CC(C)C)C(=O)N[C@@H](CO)C(=O)N[C@@H](Cc1c[nH]cn1)C(=O)N[C@@H](CCCCN)C(=O)NCC(=O)N1CCC[C@H]1C(=O)N[C@@H](CCCC)C(=O)N1CCC[C@H]1CC(=O)N[C@@H](Cc1ccc(Cl)cc1)C(=O)O)C(=O)O [compound 426]	< 1	33
CCCCCCCCCCCCC(=O)N[C@@H](CCC(=O)NCCOCCOCC(=O)NCCOCCOCC(=O)N[C@@H](CCC(N)=O)C(=O)N[C@@H](CCCNC(=N)N)C(=O)N1CCC[C@H]1C(=O)N(C)[C@@H](CCCNC(=N)N)C(=O)N[C@@](C)(CC(C)C)C(=O)N[C@@H](CO)C(=O)N[C@@H](Cc1c[nH]cn1)C(=O)N[C@@H](CCCCN)C(=O)NCC(=O)N1CCC[C@H]1C(=O)N[C@@H](CCCC)C(=O)N1CCC[C@H]1C(=O)N[C@@H](Cc1ccc(Cl)cc1)C(=O)O)C(=O)O [compound 457]	< 1	62
CCCCCCCCCCCCC(=O)N[C@@H](CCC(=O)NCCOCCOCC(=O)NCCOCCOCC(=O)N[C@@H](CCC(N)=O)C(=O)N[C@@H](CCCNC(=N)N)C(=O)N1CCC[C@H]1C(=O)N(C)[C@@H](CCCNC(=N)N)C(=O)N[C@@H](CC(C)C)C(=O)NCCC(=O)N[C@@H](Cc1c[nH]cn1)C(=O)N[C@@H](CCCCN)C(=O)NCC(=O)N1CCC[C@H]1C(=O)N[C@@H](CCCC)C(=O)N1CCC[C@H]1C(=O)N[C@@H](Cc1ccc(Cl)cc1)C(=O)O)C(=O)O [compound 464] ({Tridecanoyl-γGlu-AEEA-AEEA}-QRP[NMeR]L[βAla]HKGP[Nle]P[Phe(4-Cl)]-OH)	< 1	21
CCCCCCCCCCCCC(=O)N[C@@H](CCC(=O)NCCOCCOCC(=O)NCCOCCOCC(=O)N[C@@H](CCC(N)=O)C(=O)N[C@@H](CCCNC(=N)N)C(=O)N1CCC[C@H]1C(=O)N(C)[C@@H](CCCNC(=N)N)C(=O)N[C@@H](CC(C)C)C(=O)N[C@@H](CO)C(=O)N[C@H](CN[C@@H](CCCCN)C(=O)NCC(=O)N1CCC[C@H]1C(=O)N[C@@H](CCCC)C(=O)N1CCC[C@H]1C(=O)N[C@@H](Cc1ccc(Cl)cc1)C(=O)O)Cc1c[nH]cn1)C(=O)O [compound 469]	< 1	36
CCCCCCCCCCCCC(=O)N[C@@H](CCC(=O)NCCOCCOCC(=O)NCCOCCOCC(=O)N[C@@H](CCC(N)=O)C(=O)N[C@@H](CCCCNC(=N)N)C(=O)N1CCC[C@H]1C(=O)N(C)[C@@H](CCCNC(=N)N)C(=O)N[C@@](C)(CC(C)C)C(=O)N[C@@H](CO)C(=O)N[C@@H](Cc1c[nH]cn1)C(=O)N[C@@H](CCCCN)C(=O)NCC(=O)N1CCC[C@H]1C(=O)N[C@@H](CCCC)C(=O)N1CCC[C@H]1C(=O)N[C@@H](Cc1ccc2ccccc2c1)C(=O)O)C(=O)O [compound 473] ({Tridecanoyl-γGlu-AEEA-AEEA}-Q[hArg]P[NMeR][αMeL]SHKGP[Nle]P[2Nal]-OH)	< 1	82
